In patent publication JP2008280350A, “ナリンゲニンカルコンを有効成分とするヒスタミン遊離抑制剤又はロイコトリエン遊離抑制剤を含有する医薬品、飲食品又は化粧品” (Kikkoman Corp, priority 2000, dated 2001):
In brackets after ≈: the same amount, converted by molar mass. Where two headings read alike, the source gives them in different places.

Columns and labels:
rat mast cells [ラット肥満細胞] = test: Histamine release inhibition from rat mast cells (compound 48/80 induced); assay type: cell-based; settings: for IC50: Rattus norvegicus, Mast cell, 10 min, read-out: IC50 (50% inhibition rate), histamine release
[1] = system: cell suspension prepared as in Example 2 (rat mast cells) [ラット肥満細胞]; test: Cytotoxicity test (trypan blue cell viability); assay type: cell-based; settings: 37°C, 0, 10, 20, 60, 120 min
[2] = system: mouse ear edema model [マウス耳介浮腫モデル]; test: Anaphylaxis inhibition in mouse ear edema model; assay type: in vivo; settings: C3H/Hecrj mice, female; oral; 0.8, 0.16, 0.032, 0.0064 mg/kg; 6 doses over 5 days; anti-TNP-IgE, picryl chloride (Fig. 4)
[3] = system: rat macrophages [ラットマクロファージ]; test: Leukotriene B4 release inhibition from rat macrophages (opsonized zymosan induced); assay type: cell-based; settings: sample added 30 min before zymosan, LTB4 by ELISA (Table 2)

Row | IC50 (rat mast cells [ラット肥満細胞]; compound 48/80 (5 μg/ml) as inducer, 37°C, sample solutions 25-250 μg/ml) [µg/mL] | Compound | histamine release inhibitory activity (in words) (rat mast cells [ラット肥満細胞]; compound 48/80 as inducer, compared with ketotifen fumarate (Table 1)) | histamine release inhibitory activity relative to ketotifen fumarate (fold) (rat mast cells [ラット肥満細胞]; from IC50 values, versus ketotifen fumarate) | cytotoxicity (cell viability, number of viable cells) [1] | anaphylaxis inhibitory activity (ear edema) [2] | leukotriene release inhibitory activity [3] | IC50 (rat mast cells [ラット肥満細胞]) [µg/mL]
1 | ~70 (≈ 257 µM) | O=C(/C=C/c1ccc(O)cc1)c1c(O)cc(O)cc1O [ナリンゲニンカルコン, 2’4’6’4’−Tetrahydroxychalcone] | 公知のヒスタミン遊離抑制剤であるフマル酸ケトチフェンよりも強い、ヒスタミン遊離抑制活性を示した | ~3.5 倍 (fold) | 細胞毒性は見られなかった | 容量依存的なアナフィラキシー抑制活性を示した | 用量依存的に、ロイコトリエン遊離抑制活性を示した | –
2 | – | CN1CCC(=C2c3ccccc3CC(=O)c3sccc32)CC1 [フマル酸ケトチフェン, reference compound] | – | – | – | – | – | ~250 (≈ 808 µM)
